Results: PubChem BioAssay (NCI)
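Step 1: Grow cells in 96-well plates. Step 2: Expose to compound for 48 hours at 5 concentrations. Step 3: Interpolate endpoints linearly; if unreached, use highest concentration. TGI: concentration producing complete growth inhibition.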 *1 amine or outer side, *2 acyl side, *3 side chain or, on linkers, in order; H or OH if unused. Where a SMILES comes first, the peptide text is derived from it. [ ]: non-standard residue; d: D form. The star is where a group is joined. X31 = CC(=O)N(C)SCC(N[*:1])C(=O)[*:2]; Fmoc = O=C(OCC1c2ccccc2-c2ccccc21)*; Cbz = O=C(OCc1ccccc1)*; Boc = CC(C)(C)OC(=O)*; Bn = c1ccc(C*)cc1

Assays:
Assay in all cases: NCI-60 cell line screen, 48 h
EKVX NSCLC = system: EKVX NSCLC
SR leukemia = system: SR leukemia
RPMI-8226 leukemia = system: RPMI-8226 leukemia
HCT-15 colon = system: HCT-15 colon
NCI-H460 lung = system: NCI-H460 lung
NCI-H23 lung = system: NCI-H23 lung
OVCAR-8 ovarian = system: OVCAR-8 ovarian
MCF7 breast = system: MCF7 breast
HCC-2998 colon = system: HCC-2998 colon
UACC-257 melanoma = system: UACC-257 melanoma
MDA-MB-231 breast = system: MDA-MB-231 breast
PC-3 prostate = system: PC-3 prostate
MALME-3M melanoma = system: MALME-3M melanoma
SK-MEL-28 melanoma = system: SK-MEL-28 melanoma
UO-31 renal = system: UO-31 renal
OVCAR-3 ovarian = system: OVCAR-3 ovarian
KM12 colon = system: KM12 colon
SK-MEL-5 melanoma = system: SK-MEL-5 melanoma
DU-145 prostate = system: DU-145 prostate
MDA-N = system: MDA-N

Row | SMILES | TGI (EKVX NSCLC) [µM] | TGI (SR leukemia) [µM] | TGI (RPMI-8226 leukemia) [µM] | TGI (HCT-15 colon) [µM] | TGI (NCI-H460 lung) [µM] | TGI (NCI-H23 lung) [µM] | TGI (OVCAR-8 ovarian) [µM] | TGI (MCF7 breast) [µM] | TGI (HCC-2998 colon) [µM] | TGI (UACC-257 melanoma) [µM] | TGI (MDA-MB-231 breast) [µM] | TGI (PC-3 prostate) [µM] | TGI (MALME-3M melanoma) [µM] | TGI (SK-MEL-28 melanoma) [µM] | TGI (UO-31 renal) [µM] | TGI (OVCAR-3 ovarian) [µM] | TGI (KM12 colon) [µM] | TGI (SK-MEL-5 melanoma) [µM] | TGI (DU-145 prostate) [µM] | TGI (MDA-N) [µM]
1 | c1ccc2c(c1)NC1(N3CCCCC3)CCCCC21 (stereo not drawn) | > 100 | > 100 | > 100 | > 100 | > 100 | > 100 | > 100 | > 100 | > 100 | > 100 | > 100 | > 100 | > 100 | > 100 | > 100 | > 100 | > 100 | > 100 | > 100 | > 100
2 | C=C(CN1CC2C[C@](C(=O)OC)(c3cc4ccccc4[nH]3)C1C(OC)C2OC)S(=O)(=O)c1ccccc1 (stereo partly drawn) | 13 | 5.91 | 6.06 | 8.61 | 12 | 9.31 | 12.6 | 18.9 | 3.73 | 8.5 | 10.9 | 13 | 7.38 | 25.5 | 3.77 | 10.2 | 10.7 | 10.7 | 14.1 | 8.94
3 | CCOC(=O)C(C(=S)SC)c1nn2c(=O)cc(C)nc2s1 (stereo not drawn) | 34.3 | 47.1 | 48.7 | 35.3 | 35.6 | 39 | 35.5 | 33.1 | 47.2 | 44.2 | 37.9 | 37.3 | 31 | 34.8 | 40 | 34.8 | 65.3 | 35.1 | 32.8 | 29.8
4 | CC(=O)N(C)SCC(NC(=O)C(Cc1ccccc1)NC(=O)OCc1ccccc1)C(=O)NC(Cc1ccccc1)C(=O)NC(Cc1c[nH]c2ccccc12)C(=O)NC(CCCCNC(=O)OCc1ccccc1)C(=O)NC(C(=O)NC(CSN(C)C(C)=O)C(=O)NC(C(N)=O)C(C)OCc1ccccc1)C(C)OCc1ccccc1 (stereo not drawn) (Cbz-F[X31]FWK(Cbz)T(Bn)[X31]T(Bn)-NH2; configuration not given here) | > 100 | > 100 | > 100 | > 100 | > 100 | > 100 | > 100 | > 100 | > 100 | > 100 | > 100 | > 100 | > 100 | > 100 | > 100 | > 100 | > 100 | > 100 | > 100 | > 100
5 | COc1cccc(N(CN2C(=O)CCC2C(=O)O)C(C)=O)c1 (stereo not drawn) | > 100 | > 100 | > 100 | > 100 | > 100 | > 100 | > 100 | > 100 | > 100 | > 100 | > 100 | > 100 | > 100 | > 100 | > 100 | > 100 | > 100 | > 100 | > 100 | > 100
6 | CCOC(=O)C(NC(=O)c1ccccc1)(Nc1ccc(Cl)cc1C(F)(F)F)C(F)(F)F (stereo not drawn) | > 100 | > 24 | > 100 | > 50.9 | > 52.3 | > 78 | > 100 | > 100 | > 79.4 | > 100 | 77.2 | 29.2 | 22.1 | > 100 | > 100 | 18.7 | 5.17 | > 37.5 | > 100 | 3.69
7 | CCOC(=O)c1c2c(c(O)c3ccccc3c(O)n(Cc3ccccc3)c1C)C(=O)C=CC2=O | > 100 | > 100 | > 100 | > 100 | > 100 | > 100 | > 100 | 0.769 | > 100 | > 100 | > 100 | > 100 | > 100 | > 100 | > 100 | > 100 | > 100 | > 100 | > 100 | > 100
8 | COc1ccc2nc3ccc(OC)cc3c(SCc3ccccc3)c2c1 | > 100 | > 100 | > 100 | > 100 | > 100 | > 100 | > 100 | > 100 | > 100 | > 100 | > 100 | > 100 | > 100 | > 100 | > 35.7 | > 100 | > 100 | > 100 | > 100 | > 26.3
9 | COc1ccc(/C=C2\CCC/C(=C\c3ccc(O)c(CN4CCCCC4)c3)C2=O)cc1 | 51.7 | 19.8 | > 43.8 | 36 | 44.8 | 41.3 | 13.6 | 28.5 | 33.4 | 40.4 | 35.2 | 42.7 | 49 | 42.2 | 39.9 | 46.3 |  | 39.5 | 36.9 | 37.2
10 | CC(C)(C)OC(=O)NCCCCC(NC(=O)C(Cc1c[nH]c2ccccc12)NC(=O)OCC1c2ccccc2-c2ccccc21)C(=O)N1CCCC1C(=O)NCC(N)=O (stereo not drawn) (Fmoc-WK(Boc)PG-NH2; configuration not given here) | > 100 | > 100 | > 100 | > 100 | > 100 | > 100 | > 100 | > 100 | > 100 | > 100 | > 100 | > 100 | > 100 | > 100 | > 100 | > 100 | > 100 | > 100 | > 100 | > 100
11 | COC(=O)CCC(C)C1CCC2C3C(C[C@H](OC(C)=O)[C@]12C)[C@@]1(C)CCC2(C[C@H]1C[C@H]3OC(C)=O)OOC1(CC[C@]3(C)C4C[C@H](OC(C)=O)[C@]5(C)C(C(C)CCC(=O)OC)CCC5C4[C@H](OC(C)=O)C[C@@H]3C1)OO2 (stereo partly drawn) | > 100 | 99.1 | > 100 | > 100 | > 100 | > 100 | > 100 | > 100 | > 100 | > 100 | > 100 | > 100 | > 100 | > 100 | > 100 | > 100 | > 100 | > 100 | > 100 | > 100
12 | CC(OC(=O)C(CC(=O)OC(C)(C)C)NC(=O)OC(C)(C)C)C(=O)OCc1ccccc1 (stereo not drawn) | > 100 | > 100 | > 100 | > 100 | > 100 | > 100 | > 100 | > 100 | > 100 | > 100 | > 100 | > 100 | > 100 | > 100 | > 100 | > 100 | > 100 |  | > 100 | > 100
13 | CCOc1cc2oc(C)cc(=O)c2c(OC)c1C=Nc1ccc(Cn2c(C)nc3ccccc32)cc1 | > 100 | > 100 | > 100 | > 100 | > 100 | > 100 | > 100 | > 100 | > 100 | > 100 | > 100 | > 100 | > 100 | > 100 | > 100 | > 100 | > 100 | > 100 | > 100 | > 100
14 | COC1OC(COC(=O)c2cc(O)c(O)c(O)c2)C(OC(=O)c2cc(O)c(O)c(O)c2)C(OC(=O)c2cc(O)c(O)c(O)c2)C1OC(=O)c1cc(O)c(O)c(O)c1 (stereo not drawn) | > 100 | 36 | 97.3 | > 100 | > 100 | > 100 | > 100 | > 100 | > 100 | > 100 | > 100 | > 100 | > 100 | > 100 | > 100 | 77.7 | > 100 | > 100 | > 100 | 87.6
15 | O=c1c2cc(Cl)cc(Cl)c2oc2nc3n(c(=O)c12)CCCS3 | > 100 | > 100 | > 100 | > 100 | > 100 | > 100 |  | > 100 | > 100 | > 100 | > 100 | > 100 | > 100 | > 100 | 40.4 | > 100 | > 100 | > 100 | > 100 | > 100
16 | COc1ccc(C(=O)/C=C/c2ccc(OCCSCCCCCCCCCCSCCOc3ccc(/C=C/C(=O)c4ccc(OC)c(OC)c4)cc3)cc2)cc1OC | > 100 | > 100 | > 100 | > 100 | > 100 | > 100 | > 100 | > 100 | > 100 | > 100 | > 100 | > 100 | > 100 | > 100 |  |  | > 100 | > 100 | > 100 | > 100
17 | C[C@@H](NC(=O)c1ccc(CNC(=O)/C=C/c2cccc(Oc3ccccc3)c2)cc1)c1ccccc1 | > 65.8 | > 100 | > 100 | > 100 | > 100 | > 100 | > 100 | > 100 | > 100 | > 100 | > 100 | > 100 | > 100 | > 100 | 27.5 | > 100 | > 100 | > 100 | > 100 | > 100
18 | CC1C(OC2O[C@@H]3O[C@@]4(C)CC[C@H]5[C@H](C)CC[C@@H](C2C)[C@@]35O4)O[C@@H]2O[C@@]3(C)CC[C@H]4[C@H](C)CC[C@@H]1[C@@]24O3 (stereo partly drawn) | > 50 | > 50 | > 50 | > 50 | > 50 | > 50 | > 50 | > 50 | > 50 | > 50 | > 50 | > 50 | > 50 | > 50 |  | > 50 | > 50 | > 50 | > 50 | > 50
19 | CC(=O)OC12c3ccccc3-c3ccccc3C1C1C(=O)OC(=O)C12 (stereo not drawn) | > 10 | > 10 | > 10 | > 10 | > 10 | > 10 | > 10 | > 10 | > 10 | > 10 | > 10 | > 10 | > 10 | > 10 | > 10 | > 10 | > 10 | > 10 | > 10 | > 10
20 | O=C1C=CC(=O)c2c1ccc1c3ccccc3n(Cc3cccc([N+](=O)[O-])c3)c21 | > 100 | > 32.6 | > 55.8 | 50.2 | > 100 | 50.4 | > 100 | 65.6 | > 100 | 60.1 | 61.1 | > 69 | 40 | > 60.4 | > 100 | 34.6 | > 100 | > 100 | > 100 | 26.3
21 | CN1CN(c2ccccc2)C2(CCN(CCC3COc4ccccc4O3)CC2)C1=O (stereo not drawn) | 51.4 | 71.6 | 42.7 | > 100 |  | > 100 | > 100 | 72.4 | 23.9 | 31 | > 100 | > 100 | 38.5 | 47.3 | 38.2 | 48.7 | 66.7 | 28.2 | > 100 | 53.1
